These results are taken from ChEMBL document CHEMBL1147730, “3D-QSAR studies on cannabinoid CB1 receptor agonists: G-protein activation as biological data” (J Med Chem, 2006).

Chain of Cannabinoid receptor 1 (Rattus norvegicus) (P20272 whole entry): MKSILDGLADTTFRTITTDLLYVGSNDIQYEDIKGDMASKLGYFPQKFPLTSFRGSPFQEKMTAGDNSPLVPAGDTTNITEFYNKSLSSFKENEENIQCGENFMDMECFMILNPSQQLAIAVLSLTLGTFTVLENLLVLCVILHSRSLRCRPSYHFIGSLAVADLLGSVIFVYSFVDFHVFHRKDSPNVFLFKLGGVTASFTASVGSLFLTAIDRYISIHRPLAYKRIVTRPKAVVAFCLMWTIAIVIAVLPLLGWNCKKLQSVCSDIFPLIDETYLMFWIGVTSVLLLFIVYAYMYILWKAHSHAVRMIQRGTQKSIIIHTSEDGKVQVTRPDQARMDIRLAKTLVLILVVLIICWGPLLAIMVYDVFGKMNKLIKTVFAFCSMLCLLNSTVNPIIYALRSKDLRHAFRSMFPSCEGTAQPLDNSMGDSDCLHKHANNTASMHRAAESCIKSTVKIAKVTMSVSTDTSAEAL

One experiment concerns the target Cannabinoid receptor 1 (Rattus norvegicus) (UniProt P20272). The experiment can be described thus: (§1) […] [35S]GTP-gamma-S from rat cerebellar CB1 receptor. In kind it is functional. As to conditions: Wistar.
By Emax is commonly meant the maximal effect, on the per cent scale that the assay sets. With `CCCCCc1cc(O)c2c(c1)OC(C)(C)[C@@H]1CCC(C)=C[C@@H]21`, the Emax was 159%. Regarding `CCCCC/C=C\C/C=C\C/C=C\C/C=C\CCCCNC(=O)CCC`, the Emax was 199%. The compound `CCCCC/C=C\C/C=C\C/C=C\C/C=C\CCCCNC(=O)CC` came in with an Emax of 213%. Consider `CCCCC/C=C\C/C=C\C/C=C\C/C=C\CCCNC(=O)CC`, for which the Emax is 260%. In the case of `CCCC(C)(C)c1ccc2c(c1)OC(C)(C)[C@@H]1CC=C(C)C[C@@H]21`, the Emax amounted to 158%.

Turning to `CCCCC/C=C\C/C=C\C/C=C\C/C=C\CCCCOC(=O)[C@H](O)CO`, the maximum response (Emax) amounted to 255%.

Take `CCCCC/C=C\C/C=C\C/C=C\C/C=C\CCCC(=O)C(F)(F)F` [ARACHIDONYL TRIFLUOROMETHYLKETONE]: the Emax is 161%. `CCCCC/C=C\C/C=C\C/C=C\C/C=C\CCCCNC(=O)CCO` gave an Emax of 286%. As to `CCCCC/C=C\C/C=C\C/C=C\C/C=C\CCCNC(=O)CCC`, the Emax was 210%. Take `CCCCCCC(C)(C)/C=C\C/C=C\C/C=C\C/C=C\CCCC(=O)OC(CO)CO`: the Emax came out at 332%.

`CCCCCCC(C)(C)/C=C\C/C=C\C/C=C\C/C=C\CCCCOC(CO)CO` registered an Emax of 352%. Compound `CCCCCCC(C)(C)/C=C\C/C=C\C/C=C\C/C=C\CCCOC(CO)CO` registered an Emax of 474%. Still for that read-out and setting: under `CCCCCc1cc(O)c2c(c1)OC(C)(C)c1ccc(C)cc1-2` [CANNABINOL] stands 131%; under `CCCCCc1cc(O)c2c(c1)OC(C)(C)[C@@H]1CC=C(C)C[C@@H]21` [DELTA-8-TETRAHYDROCANNABINOL], 184%.

Turning to `CC1=CC[C@@H]2[C@@H](C1)c1c(O)cc(C(C)(C)CCCCC#N)cc1OC2(C)C`, the Emax was 369%.

Take `CCCCCCC(C)(C)/C=C\C/C=C\C/C=C\C/C=C\CCC(=O)OC(CO)CO`: the Emax turned out to be 382%. `CC1=CC[C@@H]2[C@@H](C1)c1c(O)cc(C(C)(C)CCCCBr)cc1OC2(C)C` returned an Emax of 400%.

Regarding `CCCCCCC(C)(C)c1cc(O)c2c(c1)OC(C)(C)[C@@H]1CC=C(CO)C[C@@H]21`, the Emax was determined as 396%. Same read-out and setting: under `CCCCCCC(C)(C)c1ccc([C@@H]2C[C@H](O)CC[C@H]2CCCO)c(O)c1` stands 443%. In the case of `CCCCC/C=C\C/C=C\C/C=C\C/C=C\CCCNC(=O)CCO`, the Emax was 284%. Still for that read-out and setting: under `CCCCC/C=C\C/C=C\C/C=C\C/C=C\CCCC(=O)NC1CC1` stands 351%; under `CCCCC/C=C\C/C=C\C/C=C\C/C=C\CCCC(=O)NCCCl`, 326%.

A further experiment deals with Cannabinoid receptor 1 (Rattus norvegicus, UniProt P20272). The experiment is described as §1. The class given is functional, Wistar.
Chain of Cannabinoid receptor 1 (P20272 whole entry): as the sequence (P20272 whole entry) above
Conditions: not given
For orientation: EC50 means the concentration needed to bring the measured effect to its halfway point. Lower therefore signals a more potent agent. As for `CCCCC/C=C\C/C=C\C/C=C\C/C=C\CCCCNC(=O)CCC`, the EC50 is 3160 nM.

In the case of `CCCCC/C=C\C/C=C\C/C=C\C/C=C\CCCCNC(=O)CC`, the EC50 is 3160 nM. For `CCCCC/C=C\C/C=C\C/C=C\C/C=C\CCCNC(=O)CC`, the EC50 is 2000 nM. In turn, `CCCC(C)(C)c1ccc2c(c1)OC(C)(C)[C@@H]1CC=C(C)C[C@@H]21` had an EC50 of 2000 nM. `CCCCC/C=C\C/C=C\C/C=C\C/C=C\CCCC(=O)C(F)(F)F` [ARACHIDONYL TRIFLUOROMETHYLKETONE] gave an EC50 of 25100 nM. Compared with the last compound, the EC50 is about 13-fold higher. The compound `CCCCC/C=C\C/C=C\C/C=C\C/C=C\CCCCNC(=O)CCO` gave an EC50 of 7940 nM. For `CCCCC/C=C\C/C=C\C/C=C\C/C=C\CCCNC(=O)CCC`, the response was half-maximal at 1260 nM (EC50).

Take `CCCCCCC(C)(C)/C=C\C/C=C\C/C=C\C/C=C\CCCC(=O)OC(CO)CO`: the EC50 is 50100 nM.

With `CCCCCCC(C)(C)/C=C\C/C=C\C/C=C\C/C=C\CCCCOC(CO)CO`, the EC50 was 39800 nM.

In turn, `CCCCCCC(C)(C)/C=C\C/C=C\C/C=C\C/C=C\CCCOC(CO)CO` gave an EC50 of 50100 nM. On to `CCCCCc1cc(O)c2c(c1)OC(C)(C)c1ccc(C)cc1-2` [CANNABINOL], for which the EC50 was 316 nM. `CC1=CC[C@@H]2[C@@H](C1)c1c(O)cc(C(C)(C)CCCCC#N)cc1OC2(C)C`: a half-maximal effect (EC50) was put at 10 nM. Still for that read-out and setting: under `CCCCCCC(C)(C)/C=C\C/C=C\C/C=C\C/C=C\CCC(=O)OC(CO)CO` stands 50100 nM; under `CC1=CC[C@@H]2[C@@H](C1)c1c(O)cc(C(C)(C)CCCCBr)cc1OC2(C)C`, 10 nM; under `CCCCCCC(C)(C)c1cc(O)c2c(c1)OC(C)(C)[C@@H]1CC=C(CO)C[C@@H]21`, 5.01 nM. `CCCCC/C=C\C/C=C\C/C=C\C/C=C\CCCNC(=O)CCO` gave an EC50 of 15800 nM. In turn, `CCCCC/C=C\C/C=C\C/C=C\C/C=C\CCCC(=O)NC1CC1` showed a 50% effective concentration (EC50) of 398 nM. The same measure, in the same setting: under `CCCCC/C=C\C/C=C\C/C=C\C/C=C\CCCC(=O)NCCCl` stands 316 nM.
